Measured values from EP0610377B1, “TRI-SUBSTITUTED TETRAHYDROFURAN ANTIFUNGALS” (SCHERING CORPORATION, priority 1991, dated 1993).

Columns and labels:
C. albicans C-65 = test: Candida systemic model in normal and compromised CF1 mice infected with C. albicans C-65, oral treatment; type: in vivo; details: for CFUs (GM): geometric mean of the logarithms of CFU in the kidneys
Protocol: The compounds of Examples 23-26 and itraconazole, fluconazole, and saperconazole were tested for in vivo oral antifungal activity in a Candida systemic model using CF1 male mice , average weight 20 g, Harlan Sprague Dawley, Inc., Indianapolis, Ind. infected by IV injection into the tail vein of C. albicans C-43 (5 million CFUs). The drugs were dissolved in polyethylene glycol-200 (PEG-200) and tested by orally administering 50, 25 and 10 mpk of each drug 4 hours post infection and once daily for 3 more days. Oral efficacy was measured after four (4) days by percent survival and by the number of organisms remaining in the kidneys i.e., the Colony Forming Units (CFUs). The mice were sacrificed and the kidneys of individual mice were homogenized in sterile saline, diluted and spread onto Mycosel agar. Colony counts were determined after 48 hours at 37°C. For calculation of geometric means, mice that died during the experiment were considered to have 10^9 CFUs/kidneys (based on numerous previous experiments).
The compounds of Examples 23-24 and itraconazole, fluconazole, were tested for in vivo oral antifungal anctivity in a Candida systemic model using normal and compromised CF1 mice infected with C. albicans C-65 (5 million CFUs). The procedure of Example 33 was followed. The drugs were dissolved in polyethylene glycol-200 ("PEG-200) at room temperature and tested by orally administering 100, 50, 25, 10 and 1 mpk of each drug. Oral efficacy was measured by percent survival and by the number of organisms remaining in the kidneys (CFUs) after four days. […] The pharmaceutical composition of the preferred compound of formula IIb of Eample 24 in hydroxypropyl beta cyclodextrin ("HPβCD") having 7.4 hydroxypropyl groups per HPβCD (obtained from Pharmatec, Inc., Alachua, FL 32615) was prepared by admixing the appropriate amount of the compound IIa with a 40% (w/v) solution of HPβCD (4 g of HPβCD per 10 mL of purified water). Gentle heating was used to form a clear solution. For the 10 mpk dose, 12 mg of Ha was added to 6 mL of a 40% w/v solution of HPβCD. For dilutions, sterile water was added to the solution with mixing. The pharmaceutical composition of itraconazole and the Pharmatec HPβCD described above was prepared as follows. Propylene glycol (10 mL) was admixed with 0.95 mL of concentrated HCI at 40°-45°C with stirring. Itraconazole (2.5 g) was added thereto and stirring was continued until homogeneous. The mixture so formed was cooled to 20° to 30°C and admixed with a solution of 60 g of HPβCD in 40 mL of purified water to form a clear solution. The pH was adjusted to a value of 1.9-2.1 with 10N NaOH and sufficient purified water added (with mixing) to a final volume of 100 mL. For dilutions, sterile water was added to the itraconazole - HPβCD.

Candida = Candida vaginal infection in a hamster model; type: in vivo; details: result in words
[1] = 600 Rads Mice (compromised), 10 MPK PO in PEG-200, 1/day x 4 days, day 4 post-infection
[2] = 600 Rads Mice (compromised), 10 MPK PO in PEG-200, day 4
[3] = 600 Rads Mice (compromised), 25 MPK PO in PEG-200, 1/day x 4 days, day 4 post-infection
[4] = 600 Rads Mice (compromised), 25 MPK PO in PEG-200, day 4
[5] = 600 Rads Mice (compromised), 50 MPK PO in PEG-200, 1/day x 4 days, day 4 post-infection
[6] = 600 Rads Mice (compromised), 50 MPK PO in PEG-200, day 4
[7] = 600 Rads Mice (compromised), 100 MPK PO in PEG-200, 1/day x 4 days, day 4 post-infection
[8] = 600 Rads Mice (compromised), 100 MPK PO in PEG-200, day 4
[9] = Normal Mice, 1 MPK PO in PEG-200, 1/day x 4 days, day 4 post-infection
[10] = Normal Mice, 1 MPK PO in PEG-200, day 4
[11] = Normal Mice, 10 MPK PO in PEG-200, 1/day x 4 days, day 4 post-infection
[12] = Normal Mice, 10 MPK PO in PEG-200, day 4
[13] = Normal Mice, 25 MPK PO in PEG-200, 1/day x 4 days, day 4 post-infection
[14] = Normal Mice, 25 MPK PO in PEG-200, day 4
[15] = Normal Mice, 50 MPK PO in PEG-200, 1/day x 4 days, day 4 post-infection
[16] = Normal Mice, 50 MPK PO in PEG-200, day 4

Compound	% S (Percent Survival) (C. albicans C-65; [1]) [%]	CFUs (GM) (C. albicans C-65; [2])	% S (Percent Survival) (C. albicans C-65; [3]) [%]	CFUs (GM) (C. albicans C-65; [4])	% S (Percent Survival) (C. albicans C-65; [5]) [%]	CFUs (GM) (C. albicans C-65; [6])	% S (Percent Survival) (C. albicans C-65; [7]) [%]	CFUs (GM) (C. albicans C-65; [8])	% S (Percent Survival) (C. albicans C-65; [9]) [%]	CFUs (GM) (C. albicans C-65; [10])	% S (Percent Survival) (C. albicans C-65; [11]) [%]	CFUs (GM) (C. albicans C-65; [12])	% S (Percent Survival) (C. albicans C-65; [13]) [%]	CFUs (GM) (C. albicans C-65; [14])	% S (Percent Survival) (C. albicans C-65; [15]) [%]	CFUs (GM) (C. albicans C-65; [16])	other results
CCC(C)n1ncn(-c2ccc(N3CCN(c4ccc(OCC5COC(Cn6cncn6)(c6ccc(Cl)cc6Cl)O5)cc4)CC3)cc2)c1=O (centres unmarked) [Itraconazole, reference compound]	0	9.00	0	9.00	0	9.00	20	8.45	0	900	30	7.64	50	6.93	60	5.98	% S (Percent Survival) (C. albicans C-65; 600 Rads Mice (compromised), 10 MPK PO in Beta-CD-H, 1/day x 4 days, day 4): 30%; CFUs (GM) (C. albicans C-65; 600 Rads Mice (compromised), 10 MPK PO in Beta-CD-H, day 4): 8.11; % S (Percent Survival) (C. albicans C-65; 600 Rads Mice (compromised), 25 MPK PO in Beta-CD-H, 1/day x 4 days, day 4): 60%; CFUs (GM) (C. albicans C-65; 600 Rads Mice (compromised), 25 MPK PO in Beta-CD-H, day 4): 7.98; % S (Percent Survival) (C. albicans C-65; Normal Mice, 10 MPK PO in Beta-CD-H (HPβCD vehicle for itraconazole), 1/day x 4 days, day 4): 0%; CFUs (GM) (C. albicans C-65; Normal Mice, 10 MPK PO in Beta-CD-H, day 4): 9.00; % S (Percent Survival) (C. albicans C-65; Normal Mice, 25 MPK PO in Beta-CD-H (HPβCD vehicle for itraconazole), 1/day x 4 days, day 4): 100%; CFUs (GM) (C. albicans C-65; Normal Mice, 25 MPK PO in Beta-CD-H, day 4): 6.19
CC[C@@H](C)n1ncn(-c2ccc(N3CCN(c4ccc(OC[C@@H]5CO[C@@](Cn6cncn6)(c6ccc(F)cc6F)C5)cc4)CC3)cc2)c1=O [Example 23]	0	9.00	20	8.65	30	7.33	50	6.43	0	9.00	30	7.12	60	5.74	90	4.69	–
CC[C@H](C)n1ncn(-c2ccc(N3CCN(c4ccc(OC[C@@H]5CO[C@@](Cn6cncn6)(c6ccc(F)cc6F)C5)cc4)CC3)cc2)c1=O [Example 24, (-)-[(5R)-cis]-4-[4-[4-[4-[[5-(2,4-Difluorophenyl)-5-(1H-1,2,4-triazol-1-ylmethyl)tetrahydrofuran-3-yl]methoxy]phenyl]-1-piperazinyl]phenyl]-2,4-dihydro-2-[(1S)-(1-methylpropyl)]-3H-1,2,4-triazol-3-one]	0	9.00	20	8.27	30	7.58	80	6.28	30	7.73	40	7.48	90	4.67	100	4.44	activity against a Candida vaginal infection compared with itraconazole and saperconazole (Candida): more active; % S (Percent Survival) (C. albicans C-65; 600 Rads Mice (compromised), 10 MPK PO in Beta-CD, 1/day x 4 days, day 4): 30%; CFUs (GM) (C. albicans C-65; 600 Rads Mice (compromised), 10 MPK PO in Beta-CD, day 4): 7.88; % S (Percent Survival) (C. albicans C-65; Normal Mice, 1 MPK PO in Beta-CD (hydroxypropyl-beta-cyclodextrin), 1/day x 4 days, day 4): 70%; CFUs (GM) (C. albicans C-65; Normal Mice, 1 MPK PO in Beta-CD, day 4): 5.97; % S (Percent Survival) (C. albicans C-65; Normal Mice, 10 MPK PO in Beta-CD (hydroxypropyl-beta-cyclodextrin), 1/day x 4 days, day 4): 100%; CFUs (GM) (C. albicans C-65; Normal Mice, 10 MPK PO in Beta-CD, day 4): 4.94; oral activity in the Candida systemic model compared with itraconazole (C. albicans C-65; doses of 50 and 25 mpk, each drug dissolved in PEG-200, result in words): more active orally; activity against systemic candidiasis compared with itraconazole and saperconazole (C. albicans C-65; normal and compromised mice, result in words (text refers to Tables II and V)): more active
